pIC50: −log10 of the molar value.
The molecules below were run against Thymidylate synthase (Mus musculus, UniProt P07607) (assay: Inhibitory activity against thymidylate synthase isolated from L1210 leukemia cells). Conditions: read-out: I50.
Format: cell-free

Sequence of Thymidylate synthase (P07607 whole entry): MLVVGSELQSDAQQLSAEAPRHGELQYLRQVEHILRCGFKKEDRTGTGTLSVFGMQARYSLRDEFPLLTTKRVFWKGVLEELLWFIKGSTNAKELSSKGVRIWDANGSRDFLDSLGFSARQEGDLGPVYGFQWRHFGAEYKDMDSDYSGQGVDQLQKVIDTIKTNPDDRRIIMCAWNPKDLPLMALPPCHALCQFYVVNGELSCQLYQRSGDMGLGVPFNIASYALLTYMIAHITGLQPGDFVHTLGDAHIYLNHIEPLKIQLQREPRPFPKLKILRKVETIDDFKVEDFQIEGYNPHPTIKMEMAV

Row | Structure (SMILES) | pIC50
1 | Nc1nc(O)c2cc(CSc3ccc(C(=O)NC(CCC(=O)O)C(=O)O)cc3)ccc2n1 (stereo not drawn) | 6.66
2 | Nc1nc(O)c2cc(COc3ccc(C(=O)NC(CCC(=O)O)C(=O)O)cc3)ccc2n1 (stereo not drawn) | 4.92
3 | Nc1nc(O)c2cc(CN(C=O)c3ccc(C(=O)NC(CCC(=O)O)C(=O)O)cc3)ccc2n1 (stereo not drawn) | 5.01
4 | C=CCN(Cc1ccc(C(=O)NC(CCC(=O)O)C(=O)O)cc1)c1ccc2nc(N)nc(N)c2c1 (stereo not drawn) | 5.49
5 | C#CCN(Cc1ccc(C(=O)NC(CCC(=O)O)C(=O)O)cc1)c1ccc2nc(N)nc(N)c2c1 (stereo not drawn) | 5.36
6 | C#CCN(Cc1ccc(C(=O)NC(CCC(=O)O)C(=O)O)cc1)c1ccc2nc(N)nc(O)c2c1 (stereo not drawn) | 5.07
7 | Nc1nc(N)c2cc(CN(C=O)c3ccc(C(=O)NC(CCC(=O)O)C(=O)O)cc3)ccc2n1 (stereo not drawn) | < 5.00
8 | CN(Cc1ccc2nc(N)nc(N)c2c1)c1ccc(C(=O)NC(CCC(=O)O)C(=O)O)cc1 (stereo not drawn) | 6.22
9 | Nc1nc(N)c2cc(CNc3ccc(C(=O)NC(CCC(=O)O)C(=O)O)cc3)ccc2n1 (stereo not drawn) | 5.30
10 | CN(Cc1ccc(C(=O)NC(CCC(=O)O)C(=O)O)cc1)c1ccc2nc(N)nc(N)c2c1 (stereo not drawn) | 7.48
11 | CN(Cc1ccc2nc(N)nc(O)c2c1)c1ccc(C(=O)NC(CCC(=O)O)C(=O)O)cc1 (stereo not drawn) | 6.89
12 | Cc1c(NCc2ccc(C(=O)NC(CCC(=O)O)C(=O)O)cc2)ccc2nc(N)nc(O)c12 (stereo not drawn) | 5.66
13 | Nc1nc(=O)c2cc(NCc3ccc(C(=O)NC(CCC(=O)O)C(=O)O)cc3)ccc2[nH]1 (stereo not drawn) | 5.89
14 | Cc1c(NCc2ccc(C(=O)NC(CCC(=O)O)C(=O)O)cc2)ccc2nc(N)nc(N)c12 (stereo not drawn) | 6.82
15 | Nc1nc(N)c2c(Cl)c(CNc3ccc(C(=O)NC(CCC(=O)O)C(=O)O)cc3)ccc2n1 (stereo not drawn) | 6.72
16 | Nc1nc(N)c2c(Cl)c(NCc3ccc(C(=O)NC(CCC(=O)O)C(=O)O)cc3)ccc2n1 (stereo not drawn) | 7.01
17 | Nc1nc(O)c2c(Cl)c(NCc3ccc(C(=O)NC(CCC(=O)O)C(=O)O)cc3)ccc2n1 (stereo not drawn) | 5.40
18 | Nc1nc(N)c2cc(NCc3ccc(C(=O)NC(CCC(=O)O)C(=O)O)cc3)ccc2n1 (stereo not drawn) | 6.26
19 | C=CCN(Cc1ccc(C(=O)NC(CCC(=O)O)C(=O)O)cc1)c1ccc2nc(N)nc(O)c2c1 (stereo not drawn) | 5.21
20 | Nc1nc(N)c2cc(N(C=O)Cc3ccc(C(=O)NC(CCC(=O)O)C(=O)O)cc3)ccc2n1 (stereo not drawn) | < 5.00
21 | CN(Cc1ccc(C(=O)NC(CCC(=O)O)C(=O)O)cc1)c1ccc2nc(N)nc(O)c2c1 (stereo not drawn) | 6.70
22 | Nc1nc(O)c2cc(N(C=O)Cc3ccc(C(=O)NC(CCC(=O)O)C(=O)O)cc3)ccc2n1 (stereo not drawn) | 4.96
23 | Cc1c(N(C)Cc2ccc(C(=O)NC(CCC(=O)O)C(=O)O)cc2)ccc2nc(N)nc(O)c12 (stereo not drawn) | 6.15

Source: ChEMBL document CHEMBL1124218, “Inhibition of murine thymidylate synthase and human dihydrofolate reductase by 5,8-dideaza analogues of folic acid and aminopterin” (J Med Chem, 1988)
